Source: US6362369B1, “Phthalic acid diamide derivatives fluorine-containing aniline compounds as starting material, agricultural and horticultural insecticides, and a method for application of the insecticides” (Nihon Nohyaku Co., Ltd., priority 1997, dated 2002)

Tests used:
[1] = test system: diamondback moth (Plutella xylostella); experiment: Insecticidal effect on diamondback moth (Test Example 1); assay type: in vivo; settings: for Insecticidal effect on diamondback moth (Test Example 1), judged grade: mortality judged according to the criterion shown in Test Example 1; for Insecticidal effect, Test Example 1 / Insecticidal effect (Test Example 1), judged from mortality: diamondback moth; for Insecticidal effect (Test Example 1), judged from mortality: judged by the criterion of Test Example 1
Outline: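 Triplicate groups of 10 insects: eggs laid on Chinese cabbage seedling by adults, seedling immersed then air-dried, kept at 25° C. Day-6 hatch counts gave mortality, rated by criterion.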

[2] = test system: common cutworm (Spodoptera Litura); experiment: Insecticidal effect on common cutworm (Test Example 2); assay type: in vivo; settings: 500 ppm, 25° C.; for Insecticidal effect on common cutworm (Test Example 2), judged grade / Insecticidal effect (Test Example 2), judged from mortality: cabbage leaf dip; for Insecticidal effect on common cutworm (Test Example 2), judged grade: second-instar larvae; for Insecticidal effect on common cutworm (Test Example 2), judged grade / Insecticidal effect, Test Example 2: eight days after inoculation; for Insecticidal effect, Test Example 2: cabbage leaf immersed; for Insecticidal effect (Test Example 2), judged from mortality: 8 days after inoculation
Experimental: Insecticidal effect on common cutworm (Spodoptera Litura)
After air-drying, it was placed in a plastic Petri dish with a diameter of 9 cm and inoculated with second-instar larvae of common cutworm, after which the dish was closed and then allowed to stand in a room thermostated at 25° C. Eight days after the inoculation, the dead and alive were counted. The mortality was calculated according to the following equation and the insecticidal effect was judged according to the criterion shown in Test Example 1. The test was carried out with triplicate groups of 10 insects. [formula]

[3] = judged by the mortality criterion of Test Example 1
[4] = second-instar larvae of common cutworm
[5] = mortality judged by criterion of Test Example 1
[6] = common cutworm second-instar larvae

| SMILES | Insecticidal effect (Test Example 1), judged from mortality [1] | Insecticidal effect (Test Example 2), judged from mortality [2, 4] | Insecticidal effect, Test Example 1 [1, 5] | Insecticidal effect, Test Example 2 [2, 6] | further results |
| --- | --- | --- | --- | --- | --- |
| C#CCNC(=O)c1c(C(=O)Nc2cc(Cl)ccc2C)cccc1[N+](=O)[O-] [compound 869] |  |  |  |  | Insecticidal effect on diamondback moth (Test Example 1), judged grade [1]: A (100); Insecticidal effect on common cutworm (Test Example 2), judged grade [2]: D (79-50) |
| CC(C)NC(=O)c1cccc(Cl)c1C(=O)Nc1ccc(OC(F)F)c(C(F)(F)F)c1 [compound 254] |  |  |  |  | Insecticidal effect, Test Example 1 [1, 3]: A (100); Insecticidal effect, Test Example 2 [2, 4]: A (100) |
| CSc1cc(C(F)(C(F)(F)F)C(F)(F)F)ccc1NC(=O)c1cccc(I)c1C(=O)NC(C)C [compound 1671] | A (100) | A (100) |  |  |  |
| Cc1cc(C(F)(F)C(F)(F)F)ccc1N(C)C(=O)c1cccc(Cl)c1C(=O)NC(C)c1ccccc1 (centres unmarked) [compound 1554] | A (100) | A (100) |  |  |  |
| COc1cc(C(F)(F)C(F)(F)F)ccc1NC(=O)c1cccc(I)c1C(=O)NC(C)(C)C [compound 1662] | A (100) | A (100) |  |  |  |
| Cc1cc(C(F)(C(F)(F)F)C(F)(F)F)ccc1NC(=O)c1cccc(I)c1C(=O)NC(C)C [compound 1667] | A (100) | A (100) |  |  |  |
| CCN(CC)C(=O)c1c(I)cccc1C(=O)Nc1ccc(-c2ccc(C(F)(F)F)cc2)cc1C [compound 1619] | A (100) | A (100) |  |  |  |
| CCOc1cc(C(F)(C(F)(F)F)C(F)(F)F)ccc1NC(=O)c1cccc(I)c1C(=O)NC(C)C [compound 1693] | A (100) | A (100) |  |  |  |
| CC(C)NC(=O)c1c(Cl)cccc1C(=O)Nc1ccc(OC(F)(F)F)cc1F [compound 1187] |  |  | A (100) | A (100) |  |
| CC(C)NC(=O)c1c(I)cccc1C(=O)Nc1ccc(OC(F)(F)F)cc1F [compound 1188] |  |  | A (100) | A (100) |  |
| CCN(CC)C(=O)c1c(C(=O)Nc2ccc(OC(F)(F)F)cc2C)cccc1C(F)(F)F [compound 1185] |  |  | A (100) | C (89-80) |  |
| CC(C)NC(=O)c1cccc(I)c1C(=O)Nc1ccc(SC(F)(F)C(F)(F)C(F)(F)F)cc1 [compound 424] |  |  |  |  | Insecticidal effect, Test Example 1 [1, 3]: A (100); Insecticidal effect, Test Example 2 [2, 4]: A (100) |
| Cc1cc(OC(F)(F)C(F)OC(F)(F)F)ccc1NC(=O)c1c(Cl)cccc1C(=O)NC(C)C (centres unmarked) [compound 244] |  |  |  |  | Insecticidal effect, Test Example 1 [1, 3]: A (100); Insecticidal effect, Test Example 2 [2, 4]: C (89-80) |
| CC(C)NC(=O)c1c(I)cccc1C(=O)Nc1ccc2oc(C(F)(F)F)nc2c1Cl [compound 1682] | A (100) | A (100) |  |  |  |
| CNC(=O)c1ccccc1C(=O)Nc1ccc(C(F)(F)F)cc1 [compound 2] |  |  |  |  | Insecticidal effect, Test Example 1 [1, 3]: A (100); Insecticidal effect, Test Example 2 [2, 4]: C (89-80) |
| Cc1c(NC(=O)c2cccc([N+](=O)[O-])c2C(=O)NC(C)C)ccc([N+](=O)[O-])c1C [compound 709] |  |  |  |  | Insecticidal effect on diamondback moth (Test Example 1), judged grade [1]: A (100); Insecticidal effect on common cutworm (Test Example 2), judged grade [2]: A (100) |
| COc1ccc(NC(=O)c2c(I)cccc2C(=O)NC(C)C)c(C)c1C [compound 451] |  |  |  |  | Insecticidal effect on diamondback moth (Test Example 1), judged grade [1]: A (100); Insecticidal effect on common cutworm (Test Example 2), judged grade [2]: A (100) |
| CC(C)(C)NC(=O)c1c(I)cccc1C(=O)Nc1ccc(C(F)(F)C(F)(F)F)c(Cl)c1 [compound 1609] | A (100) | A (100) |  |  |  |
| CCN(CC)C(=O)c1c(C(=O)Nc2ccc(C(F)(F)C(F)(F)F)cc2C)cccc1C(F)(F)F [compound 1186] |  |  | A (100) | A (100) |  |
| Cc1cc(I)ccc1NC(=O)c1c(I)cccc1C(=O)NC(C)C [compound 431] |  |  |  |  | Insecticidal effect, Test Example 1 [1, 3]: A (100); Insecticidal effect, Test Example 2 [2, 4]: A (100) |

| SMILES | Insecticidal effect (Test Example 1), judged from mortality [1] | Insecticidal effect (Test Example 2), judged from mortality [2, 4] | Insecticidal effect, Test Example 1 [1, 5] | Insecticidal effect, Test Example 2 [2, 6] | further results |
| --- | --- | --- | --- | --- | --- |
| Cc1cc(Cl)ccc1NC(=O)c1c(Cl)cccc1C(=O)NC(C)(C)C [compound 938] |  |  |  |  | Insecticidal effect on diamondback moth (Test Example 1), judged grade [1]: A (100); Insecticidal effect on common cutworm (Test Example 2), judged grade [2]: A (100) |
| Cc1cc(C(F)(F)C(F)(F)F)ccc1NC(=O)c1cccc(C#N)c1C(=O)NC(C)C [compound 1245] |  |  | A (100) | A (100) |  |
| CCN(CC)C(=O)c1c(OC(F)(F)F)cccc1C(=O)Nc1ccc(OC(F)(F)F)cc1C [compound 1235] |  |  | A (100) | D (79-50) |  |
| Cc1cc(C(F)(F)C(F)(F)F)ccc1NC(=O)c1cccc(I)c1C(=O)N[C@H](C)CBr [compound 1607] | A (100) | A (100) |  |  |  |
| Cc1cc(C(F)(C(F)(F)F)C(F)(F)F)ccc1NC(=O)c1cccc(OC(F)(F)F)c1C(=O)NC(C)(C)C [compound 1237] |  |  | A (100) | A (100) |  |
| Cc1cc(OC(F)(F)F)ccc1NC(=O)c1cccc(C(F)(F)F)c1C(=O)NC(C)C [compound 1183] |  |  | A (100) | A (100) |  |
| Cc1cc(OC(F)F)c(Cl)cc1NC(=O)c1c(F)cccc1C(=O)NC(C)C [compound 571] |  |  |  |  | Insecticidal effect on diamondback moth (Test Example 1), judged grade [1]: A (100); Insecticidal effect on common cutworm (Test Example 2), judged grade [2]: C (89-80) |
| COc1ccc(NC(=O)c2c(Br)cccc2C(=O)NC(C)C)c(C)c1C [compound 321] |  |  |  |  | Insecticidal effect, Test Example 1 [1, 3]: A (100); Insecticidal effect, Test Example 2 [2, 4]: A (100) |
| Cc1ccc(Cl)cc1NC(=O)c1cccc([N+](=O)[O-])c1C(=O)NC1CCCC1 [compound 858] |  |  |  |  | Insecticidal effect on diamondback moth (Test Example 1), judged grade [1]: C (89-80); Insecticidal effect on common cutworm (Test Example 2), judged grade [2]: A (100) |
| Cc1cc(Oc2c(F)c(F)c(F)c(F)c2F)ccc1NC(=O)c1cccc([N+](=O)[O-])c1C(=O)NC(C)C [compound 725] |  |  |  |  | Insecticidal effect on diamondback moth (Test Example 1), judged grade [1]: A (100); Insecticidal effect on common cutworm (Test Example 2), judged grade [2]: A (100) |
| Cc1cc(C(F)(C(F)(F)F)C(F)(F)F)ccc1NC(=O)c1cccc(OC(F)(F)F)c1C(=O)NC(C)C [compound 1236] |  |  | A (100) | A (100) |  |
| CC(C)(C)NC(=O)c1c(I)cccc1C(=O)Nc1ccc2c(c1)OC(F)(F)C(F)O2 (centres unmarked) [compound 1166] |  |  | A (100) | A (100) |  |
| Cc1ccc(NC(=O)c2c(Br)cccc2C(=O)NC(C)C)c(C)c1Cl [compound 309] |  |  |  |  | Insecticidal effect, Test Example 1 [1, 3]: A (100); Insecticidal effect, Test Example 2 [2, 4]: A (100) |
| Cc1ccc(NC(=O)c2c(I)cccc2C(=O)NC(C)C)c(C)c1Cl [compound 429] |  |  |  |  | Insecticidal effect, Test Example 1 [1, 3]: A (100); Insecticidal effect, Test Example 2 [2, 4]: D (79-50) |
| Cc1cc(C(F)(F)C(F)(F)F)ccc1NC(=O)c1cccc(C(F)(F)F)c1C(=O)NC(C)C [compound 1184] |  |  | A (100) | A (100) |  |
| Cc1cc(C(F)(C(F)(F)F)C(F)(F)F)c(Cl)cc1NC(=O)c1cccc(I)c1C(=O)NC(C)C [compound 1665] | A (100) | A (100) |  |  |  |
| Cc1cc(OC(F)(F)F)ccc1NC(=O)c1cccc(OC(F)(F)F)c1C(=O)NC(C)C [compound 1233] |  |  | A (100) | A (100) |  |
| Cc1cc(C(F)(C(F)(F)F)C(F)(F)F)c(F)cc1NC(=O)c1cccc(I)c1C(=O)NC(C)C [compound 1663] | A (100) | A (100) |  |  |  |
| Cc1cc(OC(F)F)c(Cl)cc1NC(=O)c1c(Cl)cccc1C(=O)NC(C)C [compound 245] |  |  |  |  | Insecticidal effect, Test Example 1 [1, 3]: A (100); Insecticidal effect, Test Example 2 [2, 4]: D (79-50) |
| CC(C)NC(=O)c1c(I)cccc1C(=O)Nc1ccc(C(F)(C(F)(F)F)C(F)(F)F)c(F)c1 [compound 1695] | A (100) | A (100) |  |  |  |
